“And” between values parts separate entries of the source, which are not always exact repeats. Identical values can stand only once. One block for each compound: values may come before it.
Test system: 377384-186-R-J1-PDC complex spheroid viability
Experiment: Anticancer human tumor 377384-186-R-J1-PDC patient-derived pancreatic carcinoma cell line growth inhibition [RAS]
Settings: for viability, T/C: stronger effect = lower value
Outline: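 Tumour cells grown as complex spheroids with HUVEC endothelial cells and mesenchymal stem cells, treated with RAS pathway inhibitor combinations. Each agent spans half-log steps from near clinical Cmax, or 10 microM where Cmax is unknown.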

[1] = curve of first compound, second compound 0.000949 µM
[2] = curve of first compound, second compound 0.003 µM
[3] = curve of first compound, second compound 0.00949 µM
[4] = curve of first compound, second compound 0.03 µM
[5] = curve of first compound, second compound 0.0949 µM
[6] = curve of first compound, second compound 0.3 µM
[7] = second compound 0.000949 µM, first compound 0.0316 µM
[8] = second compound 0.000949 µM, first compound 0.1 µM
[9] = second compound 0.000949 µM, first compound 0.316 µM
[10] = second compound 0.000949 µM, first compound 1 µM
[11] = second compound 0.000949 µM, first compound 3.16 µM
[12] = second compound 0.000949 µM, first compound 10 µM
[13] = second compound 0.003 µM, first compound 0.0316 µM
[14] = second compound 0.003 µM, first compound 0.1 µM
[15] = second compound 0.003 µM, first compound 0.316 µM
[16] = second compound 0.003 µM, first compound 1 µM
[17] = second compound 0.003 µM, first compound 3.16 µM
[18] = second compound 0.003 µM, first compound 10 µM
[19] = second compound 0.00949 µM, first compound 0.0316 µM
[20] = second compound 0.00949 µM, first compound 0.1 µM
[21] = second compound 0.00949 µM, first compound 0.316 µM
[22] = second compound 0.00949 µM, first compound 1 µM
[23] = second compound 0.00949 µM, first compound 3.16 µM
[24] = second compound 0.00949 µM, first compound 10 µM
[25] = second compound 0.03 µM, first compound 0.0316 µM
[26] = second compound 0.03 µM, first compound 0.1 µM
[27] = second compound 0.03 µM, first compound 0.316 µM
[28] = second compound 0.03 µM, first compound 1 µM
[29] = second compound 0.03 µM, first compound 3.16 µM
[30] = second compound 0.03 µM, first compound 10 µM
[31] = second compound 0.0949 µM, first compound 0.0316 µM
[32] = second compound 0.0949 µM, first compound 0.1 µM
[33] = second compound 0.0949 µM, first compound 0.316 µM
[34] = second compound 0.0949 µM, first compound 1 µM
[35] = second compound 0.0949 µM, first compound 3.16 µM
[36] = second compound 0.0949 µM, first compound 10 µM
[37] = second compound 0.3 µM, first compound 0.0316 µM
[38] = second compound 0.3 µM, first compound 0.1 µM
[39] = second compound 0.3 µM, first compound 0.316 µM
[40] = second compound 0.3 µM, first compound 1 µM
[41] = second compound 0.3 µM, first compound 3.16 µM
[42] = second compound 0.3 µM, first compound 10 µM
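Note: spheroids exposed to compounds for seven days before readout.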

IC50 [1]: < 0.0316 µM
IC50 [2]: < 0.0316 µM
IC50 [3]: < 0.0316 µM
IC50 [4]: < 0.0316 µM
IC50 [5]: < 0.0316 µM
IC50 [6]: < 0.0316 µM
Compound: Cc1nc(N2CCC3(CC2)COC(C)C3N)c(CO)nc1Sc1ccnc(N)c1Cl (stereo not drawn) + CCn1c(-c2cc(N3CCN(C)CC3)cnc2C(C)OC)c2c3cc(ccc31)-c1csc(n1)CC(NC(=O)C1CC1C)C(=O)N1CCCC(N1)C(=O)OCC(C)(C)C2
viability, T/C [7]: 28.9%
viability, T/C [8]: 15.6%
viability, T/C [9]: 5.63%
viability, T/C [10]: 3.93%
viability, T/C [11]: 2.14%
viability, T/C [12]: 1.26%
viability, T/C [13]: 5.98%
viability, T/C [14]: 3.1%
viability, T/C [15]: 1.7%
viability, T/C [16]: 1.39%
viability, T/C [17]: 0.72%
viability, T/C [18]: 0.71%
viability, T/C [19]: 2.71%
viability, T/C [20]: 2.19%
viability, T/C [21]: 1.28%
viability, T/C [22]: 1.66%
viability, T/C [23]: 0.87%
viability, T/C [24]: 0.71%
viability, T/C [25]: 2.03%
viability, T/C [26]: 1.9%
viability, T/C [27]: 1.46%
viability, T/C [28]: 1.09%
viability, T/C [29]: 0.71%
viability, T/C [30]: 0.28%
viability, T/C [31]: 1.82%
viability, T/C [32]: 1.54%
viability, T/C [33]: 1.69%
viability, T/C [34]: 0.9%
viability, T/C [35]: 0.56%
viability, T/C [36]: 0.2%
viability, T/C [37]: 1.8%
viability, T/C [38]: 1.68%
viability, T/C [39]: 1.39%
viability, T/C [40]: 1.08%
viability, T/C [41]: 0.69%
viability, T/C [42]: 0.21%

IC50 (curve of compound): < 0.0316 µM
Compound: CC(=O)OC12COC1CC(O)C1(C)C(=O)C(O)C3=C(C)C(OC(=O)C(O)C(NC(=O)OC(C)(C)C)c4ccccc4)CC(O)(C(OC(=O)c4ccccc4)C21)C3(C)C (stereo not drawn)
viability, T/C (compound 0.0316 µM): 9.48% [middle of 4 runs]
viability, T/C (compound 0.1 µM): 12% and 10.2% (2×) and 9.32%
viability, T/C (compound 0.316 µM): 11.3% [middle of 4 runs]
viability, T/C (compound 1 µM): 12.8% [middle of 4 runs]
viability, T/C (compound 3.16 µM): 14.2% [middle of 4 runs]
viability, T/C (compound 10 µM): 13.2% [middle of 4 runs]

IC50 [1]: > 10 µM
IC50 [2]: > 10 µM
IC50 [3]: > 10 µM
IC50 [4]: > 10 µM
IC50 [5]: > 10 µM
IC50 [6]: > 10 µM
Compound: NC1c2ccccc2OC12CCN(c1cnc3c(N4CCCc5ncccc54)n[nH]c3n1)CC2 (stereo not drawn) + CCn1c(-c2cccnc2C(C)OC)c2c3cc(ccc31)N1CCOC(CC(NC(=O)C(C(C)C)N(C)C(=O)C3(F)CCN(C(=O)C#CC(C)(C)N(C)C)CC3)C(=O)N3CCCC(N3)C(=O)OCC(C)(C)C2)C1
viability, T/C [7]: 106%
viability, T/C [8]: 97.5%
viability, T/C [9]: 88.2%
viability, T/C [10]: 82.3%
viability, T/C [11]: 84.3%
viability, T/C [12]: 84.3%
viability, T/C [13]: 98.8%
viability, T/C [14]: 86.1%
viability, T/C [15]: 82.2%
viability, T/C [16]: 79.9%
viability, T/C [17]: 93.3%
viability, T/C [18]: 67.4%
viability, T/C [19]: 97.3%
viability, T/C [20]: 84.3%
viability, T/C [21]: 84.5%
viability, T/C [22]: 73.8%
viability, T/C [23]: 89.8%
viability, T/C [24]: 76.1%
viability, T/C [25]: 102%
viability, T/C [26]: 84.4%
viability, T/C [27]: 70.6%
viability, T/C [28]: 86%
viability, T/C [29]: 79.2%
viability, T/C [30]: 68.1%
viability, T/C [31]: 75.6%
viability, T/C [32]: 82.6%
viability, T/C [33]: 81%
viability, T/C [34]: 69.3%
viability, T/C [35]: 74%
viability, T/C [36]: 71.9%
viability, T/C [37]: 67.6%
viability, T/C [38]: 60.1%
viability, T/C [39]: 59.4%
viability, T/C [40]: 63.1%
viability, T/C [41]: 70.9%
viability, T/C [42]: 59.9%

IC50 (curve of first compound, second compound 0.0316 µM): < 0.00316 µM
IC50 (curve of first compound, second compound 0.1 µM): < 0.00316 µM
IC50 (curve of first compound, second compound 0.316 µM): < 0.00316 µM
IC50 (curve of first compound, second compound 1 µM): < 0.00316 µM
IC50 (curve of first compound, second compound 3.16 µM): < 0.00316 µM
IC50 (curve of first compound, second compound 10 µM): < 0.00316 µM
Compound: C=CC(=O)N1CCN(c2nc(OCC3CCCN3C)nc3c(F)c(-c4nc(N)cc(C)c4C(F)(F)F)c(Cl)cc23)C(C)C1 (stereo not drawn) + C#Cc1c(F)ccc2cc(O)cc(-c3ncc4c(N5CC6CCC(C5)N6)nc(OCC56CCCN5CC(F)C6)nc4c3F)c12
viability, T/C (second compound 0.0316 µM, first compound 0.00316 µM): 24.6%
viability, T/C (second compound 0.0316 µM, first compound 0.01 µM): 16.6%
viability, T/C (second compound 0.0316 µM, first compound 0.0316 µM): 20.2%
viability, T/C (second compound 0.0316 µM, first compound 0.1 µM): 20.3%
viability, T/C (second compound 0.0316 µM, first compound 0.316 µM): 10.2%
viability, T/C (second compound 0.0316 µM, first compound 1 µM): 9.03%
viability, T/C (second compound 0.1 µM, first compound 0.00316 µM): 14.6%
viability, T/C (second compound 0.1 µM, first compound 0.01 µM): 9.29%
viability, T/C (second compound 0.1 µM, first compound 0.0316 µM): 10.7%
viability, T/C (second compound 0.1 µM, first compound 0.1 µM): 9.27%
viability, T/C (second compound 0.1 µM, first compound 0.316 µM): 5.71%
viability, T/C (second compound 0.1 µM, first compound 1 µM): 5.75%
viability, T/C (second compound 0.316 µM, first compound 0.00316 µM): 5.54%
viability, T/C (second compound 0.316 µM, first compound 0.01 µM): 5.26%
viability, T/C (second compound 0.316 µM, first compound 0.0316 µM): 4.78%
viability, T/C (second compound 0.316 µM, first compound 0.1 µM): 5.36%
viability, T/C (second compound 0.316 µM, first compound 0.316 µM): 4.48%
viability, T/C (second compound 0.316 µM, first compound 1 µM): 2.79%
viability, T/C (second compound 1 µM, first compound 0.00316 µM): 3.22%
viability, T/C (second compound 1 µM, first compound 0.01 µM): 2.82%
viability, T/C (second compound 1 µM, first compound 0.0316 µM): 3.82%
viability, T/C (second compound 1 µM, first compound 0.1 µM): 3.54%
viability, T/C (second compound 1 µM, first compound 0.316 µM): 3.08%
viability, T/C (second compound 1 µM, first compound 1 µM): 3.36%
viability, T/C (second compound 3.16 µM, first compound 0.00316 µM): 1.84%
viability, T/C (second compound 3.16 µM, first compound 0.01 µM): 2.35%
viability, T/C (second compound 3.16 µM, first compound 0.0316 µM): 2.16%
viability, T/C (second compound 3.16 µM, first compound 0.1 µM): 1.87%
viability, T/C (second compound 3.16 µM, first compound 0.316 µM): 2.05%
viability, T/C (second compound 3.16 µM, first compound 1 µM): 2.48%
viability, T/C (second compound 10 µM, first compound 0.00316 µM): 1.31%
viability, T/C (second compound 10 µM, first compound 0.01 µM): 1.46%
viability, T/C (second compound 10 µM, first compound 0.0316 µM): 0.83%
viability, T/C (second compound 10 µM, first compound 0.1 µM): 1.21%
viability, T/C (second compound 10 µM, first compound 0.316 µM): 1.13%
viability, T/C (second compound 10 µM, first compound 1 µM): 0.62%

Source: PubChem BioAssay AID2060903 (Molecular Pharmacology Branch, DTP, NCI, 2025)
